18 molecules from patent US20100305068A1, “COMPOUNDS AND METHODS FOR MODULATING PROTEIN TRAFFICKING” (priority 2006, published 2010) can be followed below.

For this experiment, the system named is pdr5 ypt1^ts cells. Briefly: microbe, parasite or virus in culture. Format: cell-based, yeast. The conditions noted are these: 37° C.; for minimal effective concentration: Saccharomyces cerevisiae, lowest concentration tested giving growth above the 0 μM background, read-out: ypt1-ts MRC (minimal rescue concentration); for minimal effective concentration / optical density, ypt1-ts, 0.39 / optical density, ypt1-ts, 0.78 / optical density, ypt1-ts, 1.56 / optical density, ypt1-ts, 3.13 / optical density, ypt1-ts, 6.25 / optical density, ypt1-ts, 12.5 / optical density, ypt1-ts, 25: Table 2; for optical density, ypt1-ts, 0.39: 0.39 μM compound; for optical density, ypt1-ts, 0.39 / optical density, ypt1-ts, 0.78 / optical density, ypt1-ts, 1.56 / optical density, ypt1-ts, 3.13 / optical density, ypt1-ts, 6.25 / optical density, ypt1-ts, 12.5 / optical density, ypt1-ts, 25: background (0 μM) 0.058; for optical density, ypt1-ts, 0.78: 0.78 μM compound; for optical density, ypt1-ts, 1.56: 1.56 μM compound; for optical density, ypt1-ts, 3.13: 3.13 μM compound; for optical density, ypt1-ts, 6.25: 6.25 μM compound; for optical density, ypt1-ts, 12.5: 12.5 μM compound; for optical density, ypt1-ts, 25: 25 μM compound; for optical density, 3.13 uM / optical density, 12.5 uM / optical density, 50 uM: Table 3, background (0 uM) 0.077; for optical density, 3.13 uM: 3.13 uM compound; for optical density, 12.5 uM: 12.5 uM compound; for optical density, 50 uM: 50 uM compound. An excerpt: The activity of the compounds as modulators of protein trafficking may be measured in the assays described herein that evaluate the ability of a compound to rescue an impairment in protein trafficking. For example, the yeast mutant cell line ypt1^ts can be used to identify compounds that rescue cells from the lethal phenotype of a mutant YPT1 allele (see, e.g., Examples and Schmitt et al. (1988) Cell 53:635-47). The activity may be measured, for example, in a whole yeast cell assay using 384-well screening protocol and an optical density measurement.
The yeast mutant cell line ypt1^ts suppresses, in a temperature dependent fashion, the dominant-lethal phenotype of a mutant YPT1 allele (Schmitt et al. (1988) Cell 53:635-47). ypt1^ts cells grow normally at temperatures up to 30° C., but are growth arrested at 37° C. (Id.).
A library of compounds (“The Spectrum Collection”) obtained from Microsource Discovery Systems, Inc. (Gaylordsville, Conn.) was screened to assess the ability of individual compounds to restore growth of ypt1^ts cells. Screening was carried out using ypt1^ts cells containing a mutation in the pdr5 gene (resulting in inactivation of a membrane efflux pump). The effect of the compounds was measured in pdr5 ypt1^ts cells cultured at 37° C.

The structures appear in SMILES notation.

As to `CC(=O)c1cc(CC=C(C)C)c(O)c(CC=C(C)C)c1`, the minimal effective concentration was 25 µM; the “optical density, ypt1-ts, 0.39” value turned out to be 0.085; the “optical density, ypt1-ts, 0.78” value was determined as 0.077; the “optical density, ypt1-ts, 1.56” value was found to be 0.082. For the same molecule, the “optical density, ypt1-ts, 3.13” value is reported as 0.108; the “optical density, ypt1-ts, 6.25” value amounted to 0.096; the “optical density, ypt1-ts, 12.5” value is reported as 0.112; the “optical density, ypt1-ts, 25” value came out at 0.195.

For the molecule `COc1ccc2c(c1)OCC(Cc1ccc(OC)c(O)c1)C2=O` (stereo not shown), the minimal effective concentration was 12.5 µM; the “optical density, ypt1-ts, 0.39” value is reported as 0.099; the “optical density, ypt1-ts, 0.78” value stood at 0.068; the “optical density, ypt1-ts, 1.56” value came to 0.085. Moreover, the “optical density, ypt1-ts, 3.13” value came out at 0.101; the “optical density, ypt1-ts, 6.25” value is on record as 0.125; the “optical density, ypt1-ts, 12.5” value was 0.319; the “optical density, ypt1-ts, 25” value is reported as 0.62.

Consider `O=C(/C=C(\O)c1ccccc1)c1ccccc1O` [2',beta- DIHYDROXYCHALCONE], for which the minimal effective concentration worked out at 12.5 µM; the “optical density, ypt1-ts, 0.39” value was found to be 0.083; the “optical density, ypt1-ts, 0.78” value is 0.072; the “optical density, ypt1-ts, 1.56” value was 0.076. The “optical density, ypt1-ts, 3.13” value is recorded as 0.096; the “optical density, ypt1-ts, 6.25” value stood at 0.124; the “optical density, ypt1-ts, 12.5” value was 0.31; the “optical density, ypt1-ts, 25” value was 0.551.

Consider `CCOc1ccc(C(=O)c2ccc(O)c(O)c2O)cc1` [2,3,4-TRIHYDROXY-4'- ETHOX[…]], for which the minimal effective concentration was found to be 12.5 µM; the “optical density, ypt1-ts, 0.39” value worked out at 0.114; the “optical density, ypt1-ts, 0.78” value came out at 0.074; the “optical density, ypt1-ts, 1.56” value was 0.081. Moreover, the “optical density, ypt1-ts, 3.13” value is given as 0.103; the “optical density, ypt1-ts, 6.25” value was determined as 0.1; the “optical density, ypt1-ts, 12.5” value turned out to be 0.169; the “optical density, ypt1-ts, 25” value was 0.365.

`COC(=O)CCCOc1ccc(Cl)cc1Cl` [2,4-DICHLORO- PHENOXY- BUTYRIC ACID, METHYL ESTER]: the “optical density, 3.13 uM” value is reported as 0.159; the “optical density, 12.5 uM” value was 0.255; the “optical density, 50 uM” value is on record as 0.221.

Regarding `CCOC(=O)C1(O)Oc2cc(OC)cc(OC)c2C(=O)C1c1ccccc1` (stereo not shown) [2-ETHOXY- CARBONYL-2- HYDROXY-5,7- DIMETHOXY- ISOFLAVANONE], the “optical density, 3.13 uM” value is 0.091; the “optical density, 12.5 uM” value is reported as 0.134; the “optical density, 50 uM” value worked out at 0.468.

For the molecule `O=c1c2ccccc2oc2ccc(O)cc12` [2-HYDROXY- XANTHONE], the “optical density, 3.13 uM” value was determined as 0.107; the “optical density, 12.5 uM” value is given as 0.257; the “optical density, 50 uM” value is given as 0.571.

Take `COc1cccc(/C=C/C(=O)O)c1C(C)C` [2-ISOPROPYL-3- METHOXYCINNAMIC ACID]: the minimal effective concentration stood at 12.5 µM; the “optical density, ypt1-ts, 0.39” value is listed as 0.097; the “optical density, ypt1-ts, 0.78” value was 0.079; the “optical density, ypt1-ts, 1.56” value amounted to 0.086. Further, the “optical density, ypt1-ts, 3.13” value amounted to 0.111; the “optical density, ypt1-ts, 6.25” value stood at 0.123; the “optical density, ypt1-ts, 12.5” value is on record as 0.184; the “optical density, ypt1-ts, 25” value is 0.397.

Take `COc1ccc2oc3ccccc3c(=O)c2c1` [2-METHOXYXANTHONE]: the “optical density, ypt1-ts, 0.39” value is 0.093; the “optical density, ypt1-ts, 0.78” value was determined as 0.069; the “optical density, ypt1-ts, 1.56” value is given as 0.083; the “optical density, ypt1-ts, 3.13” value was determined as 0.094. The “optical density, ypt1-ts, 6.25” value is on record as 0.108; the “optical density, ypt1-ts, 12.5” value was 0.128; the “optical density, ypt1-ts, 25” value is 0.221.

With `Cc1[nH]c2ccccc2c1CN(C)C` [2-METHYL GRAMINE], the “optical density, 3.13 uM” value came to 0.084; the “optical density, 12.5 uM” value is reported as 0.106; the “optical density, 50 uM” value is 0.295.

As for `CCCc1occc(=O)c1/C=C/O` [2-PROPYL-3- HYDRO[…]-4-ONE], the minimal effective concentration came out at 25 µM; the “optical density, ypt1-ts, 0.39” value turned out to be 0.091; the “optical density, ypt1-ts, 0.78” value was found to be 0.079; the “optical density, ypt1-ts, 1.56” value was 0.083. Also, the “optical density, ypt1-ts, 3.13” value worked out at 0.092; the “optical density, ypt1-ts, 6.25” value is 0.088; the “optical density, ypt1-ts, 12.5” value came to 0.104; the “optical density, ypt1-ts, 25” value is on record as 0.126.

Regarding `c1ccc2c(Cc3c[nH]c4ccccc34)c[nH]c2c1` [3,3'- DIINDOLYLMETHANE], the minimal effective concentration is 3.13 µM; the “optical density, ypt1-ts, 0.39” value is listed as 0.205; the “optical density, ypt1-ts, 0.78” value is reported as 0.097; the “optical density, ypt1-ts, 1.56” value is reported as 0.118. Further, the “optical density, ypt1-ts, 3.13” value came to 0.164; the “optical density, ypt1-ts, 6.25” value is given as 0.154; the “optical density, ypt1-ts, 12.5” value is 0.263; the “optical density, ypt1-ts, 25” value came to 0.035.

As for `CCOc1cccc(C(=O)c2ccc(O)c(O)c2O)c1` [3,4-DIDESMETHYL-5- DESHYDROXY-3'- ETHOXYSCLEROIN], the minimal effective concentration was determined as 6.25 µM; the “optical density, ypt1-ts, 0.39” value is given as 0.094; the “optical density, ypt1-ts, 0.78” value turned out to be 0.075; the “optical density, ypt1-ts, 1.56” value is 0.091. Moreover, the “optical density, ypt1-ts, 3.13” value is reported as 0.108; the “optical density, ypt1-ts, 6.25” value is reported as 0.143; the “optical density, ypt1-ts, 12.5” value is listed as 0.185; the “optical density, ypt1-ts, 25” value is listed as 0.396.

As for `O=c1oc2ccccc2cc1O` [3- HYDROXY- COUMARIN], the “optical density, 3.13 uM” value came out at 0.083; the “optical density, 12.5 uM” value amounted to 0.109; the “optical density, 50 uM” value worked out at 0.299.

As for `COC(=O)C[C@H]1C(C)(C)[C@@H](O)[C@@H]2CC3=C4C=C(OC)O[C@@H](c5ccoc5)[C@]4(C)CCC3[C@]1(C)C2=O` (stereo partly drawn) [3-DEOXO-3beta-HYDRO[…] 16-ENOL ETHER], the minimal effective concentration is 3.13 µM; the “optical density, ypt1-ts, 0.39” value was 0.102; the “optical density, ypt1-ts, 0.78” value is recorded as 0.077; the “optical density, ypt1-ts, 1.56” value was determined as 0.091. In addition, the “optical density, ypt1-ts, 3.13” value was found to be 0.141; the “optical density, ypt1-ts, 6.25” value is 0.219; the “optical density, ypt1-ts, 12.5” value came to 0.583; the “optical density, ypt1-ts, 25” value came to 0.625.

Turning to `C=C1[C@H]2CC[C@@]3(C)[C@H](c4ccoc4)OC(=O)C[C@]13O[C@H]1C[C@H](O)C(C)(C)[C@H](CC(=O)OC)[C@]12C` [3-DEOXY-3beta- HYDROXY- […] METHYL ESTER], the “optical density, 3.13 uM” value came out at 0.384; the “optical density, 12.5 uM” value was found to be 0.641; the “optical density, 50 uM” value is on record as 0.621.

With `COc1ccc(C(=O)c2ccccc2)c(O)c1O` [3-DESMETHYL- 5-DES- HYDROXY- SCLEROIN], the “optical density, 3.13 uM” value worked out at 0.11; the “optical density, 12.5 uM” value is recorded as 0.149; the “optical density, 50 uM” value was 0.556.

For `C[C@]12CC[C@@H](O)C[C@H]1CCc1ccccc12` [3alpha- HYDROXY-4,4- BISNOR- 8,11,13- PODO- […]], the “optical density, 3.13 uM” value stood at 0.074; the “optical density, 12.5 uM” value came out at 0.104; the “optical density, 50 uM” value was found to be 0.408.
